This note sets out measurements from US11180474B2 (BRISTOL-MYERS SQUIBB COMPANY, priority 2016, dated 2021).

In one assay the target is T1, human TLR7 (Homo sapiens, UniProt Q9NYK1).
T1 construct: host or cells: HEK-Blue cells
T1 sequence (Q9NYK1 27-1049): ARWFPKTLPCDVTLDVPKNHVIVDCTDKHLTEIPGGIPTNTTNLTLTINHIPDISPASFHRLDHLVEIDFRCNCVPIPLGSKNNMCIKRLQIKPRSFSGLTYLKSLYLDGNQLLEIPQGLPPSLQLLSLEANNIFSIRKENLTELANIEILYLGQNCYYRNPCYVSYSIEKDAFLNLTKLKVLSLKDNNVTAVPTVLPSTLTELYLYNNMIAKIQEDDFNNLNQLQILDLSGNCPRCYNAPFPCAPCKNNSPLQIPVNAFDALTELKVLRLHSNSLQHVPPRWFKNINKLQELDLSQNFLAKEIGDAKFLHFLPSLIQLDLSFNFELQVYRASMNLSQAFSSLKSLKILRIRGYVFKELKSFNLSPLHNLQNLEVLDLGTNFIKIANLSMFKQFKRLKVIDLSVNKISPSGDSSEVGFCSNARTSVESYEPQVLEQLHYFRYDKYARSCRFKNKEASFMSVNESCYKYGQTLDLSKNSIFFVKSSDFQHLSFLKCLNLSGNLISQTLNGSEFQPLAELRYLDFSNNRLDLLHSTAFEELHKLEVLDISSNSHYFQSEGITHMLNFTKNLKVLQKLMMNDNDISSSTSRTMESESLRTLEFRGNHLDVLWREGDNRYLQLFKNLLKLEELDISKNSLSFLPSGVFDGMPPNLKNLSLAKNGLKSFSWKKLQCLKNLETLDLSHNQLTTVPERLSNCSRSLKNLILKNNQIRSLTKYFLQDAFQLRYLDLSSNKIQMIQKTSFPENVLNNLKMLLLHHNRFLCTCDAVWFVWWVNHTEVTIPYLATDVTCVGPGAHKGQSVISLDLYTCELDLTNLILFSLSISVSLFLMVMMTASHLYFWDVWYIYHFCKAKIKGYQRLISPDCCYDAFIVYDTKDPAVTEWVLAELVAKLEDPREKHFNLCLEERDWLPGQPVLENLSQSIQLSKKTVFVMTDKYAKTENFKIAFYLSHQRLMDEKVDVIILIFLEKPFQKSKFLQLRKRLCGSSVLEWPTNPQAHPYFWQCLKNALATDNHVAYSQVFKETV
Briefly: TLR7 inhibition reporter assay (HEK-Blue cells, SEAP reporter, gardiquimod stimulation). In kind it is cell-based. As to conditions: HEK-Blue cells overexpressing human TLR7, gardiquimod 7.5 μM. The gist of the method:
(§1)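 Dose-response testing from 0.05 nM to 50 μM final was done on reporter cells for 22 hours at 37° C. Secreted SEAP was then detected, and inhibition was calculated as percent reduction of the agonist-plus-DMSO signal compared with wells given a known inhibitor.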

The next assay addresses T2, human TLR8 (Homo sapiens, UniProt Q9NR97).
T2 construct: host or cells: HEK-Blue cells
T2 sequence (Q9NR97 27-1041): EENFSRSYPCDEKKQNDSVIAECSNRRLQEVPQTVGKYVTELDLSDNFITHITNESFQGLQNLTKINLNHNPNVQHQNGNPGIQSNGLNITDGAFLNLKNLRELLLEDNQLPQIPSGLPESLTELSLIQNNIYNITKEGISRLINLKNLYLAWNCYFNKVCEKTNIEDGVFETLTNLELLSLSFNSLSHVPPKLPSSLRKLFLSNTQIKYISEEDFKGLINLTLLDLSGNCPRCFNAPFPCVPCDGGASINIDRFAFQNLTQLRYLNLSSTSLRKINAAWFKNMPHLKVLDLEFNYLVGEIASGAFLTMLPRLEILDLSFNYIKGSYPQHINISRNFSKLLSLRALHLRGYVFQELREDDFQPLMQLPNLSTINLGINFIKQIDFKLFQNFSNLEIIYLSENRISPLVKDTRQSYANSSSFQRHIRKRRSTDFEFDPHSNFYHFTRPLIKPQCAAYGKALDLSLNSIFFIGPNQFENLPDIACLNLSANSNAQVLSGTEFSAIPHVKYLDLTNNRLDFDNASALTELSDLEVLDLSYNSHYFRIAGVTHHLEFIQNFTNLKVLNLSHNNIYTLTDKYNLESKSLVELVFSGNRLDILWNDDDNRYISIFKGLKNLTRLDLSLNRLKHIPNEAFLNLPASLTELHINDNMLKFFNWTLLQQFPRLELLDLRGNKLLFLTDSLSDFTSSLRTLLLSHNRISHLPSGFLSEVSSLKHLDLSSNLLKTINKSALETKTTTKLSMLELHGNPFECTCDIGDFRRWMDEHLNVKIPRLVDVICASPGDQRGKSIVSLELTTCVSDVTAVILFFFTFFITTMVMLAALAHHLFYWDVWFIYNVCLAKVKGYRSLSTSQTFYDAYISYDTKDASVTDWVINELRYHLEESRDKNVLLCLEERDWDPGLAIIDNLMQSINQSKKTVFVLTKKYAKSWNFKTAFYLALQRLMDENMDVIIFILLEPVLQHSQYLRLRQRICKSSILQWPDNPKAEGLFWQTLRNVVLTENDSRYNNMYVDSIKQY
Briefly: TLR8 inhibition reporter assay (HEK-Blue cells, SEAP reporter, R848 stimulation). In kind it is cell-based. To be noted: HEK-Blue cells overexpressing human TLR8, R848 15.9 μM. The essentials: as §1

As a reminder, the IC50 is the concentration that inhibits the measured activity by half. A higher IC50 goes with lower potency. With `COc1ccc(-c2[nH]c3ccc(C4CCN(CC(=O)N5CC[C@H](N(C)C)C5)CC4)cc3c2CC(F)(F)F)cc1OC` [Example 374, (S)-2-(4-(2-(3,4-dimethoxyphenyl)-3-(2,2,2-trifluoroethyl)-1H-indol-5-yl)piperidin-1-yl)-1-(3-(dimethylamino)pyrrolidin-1-yl) ethan-1-one], the 50% inhibitory concentration (IC50) stood at 0.009 µM at human TLR7 and 0.035 µM on human TLR8.
Take `COc1ccc(-c2[nH]c3ccc(C4CCN(CC(=O)NCCN5CCCC5)CC4)cc3c2CC(F)(F)F)cc1OC` [Example 375, 2-(4-(2-(3,4-dimethoxyphenyl)-3-(2,2,2-trifluoroethyl)-1H-indol-5-yl)piperidin-1-yl)-N-(2-(pyrrolidin-1-yl)ethyl)acetamide]: the values for the half-maximal inhibitory concentration (IC50) against human TLR7 and against human TLR8 were 0.029 µM and 0.117 µM, respectively.
The matching figures for `COc1ccc(-c2[nH]c3ccc(C4CCN(CC(=O)NCCCN5CCCC5=O)CC4)cc3c2CC(F)(F)F)cc1OC` [Example 376, 2-(4-(2-(3,4-dimethoxyphenyl)-3-(2,2,2-trifluoroethyl)-1H-indol-5-yl)piperidin-1-yl)-N-(3-(2-oxopyrrolidin-1-yl)propyl)acetamide]: 0.178 µM and 0.065 µM.
With `CCC(C)NC(=O)CN1CCC(c2ccc3[nH]c(-c4ccc(OC)c(OC)c4)c(CC(F)(F)F)c3c2)CC1` (stereo not shown) [Example 377, N-(sec-butyl)-2-(4-(2-(3,4-dimethoxyphenyl)-3-(2,2,2-trifluoroethyl)-1H-indol-5-yl)piperidin-1-yl)acetamide], the IC50 came to 0.233 µM against human TLR7 and 0.204 µM at human TLR8.
The matching figures for `CCC(CC)NC(=O)CN1CCC(c2ccc3[nH]c(-c4ccc(OC)c(OC)c4)c(CC(F)(F)F)c3c2)CC1` [Example 378, 2-(4-(2-(3,4-dimethoxyphenyl)-3-(2,2,2-trifluoroethyl)-1H-indol-5-yl)piperidin-1-yl)-N-(pentan-3-yl)acetamide]: 0.622 µM and 0.451 µM.
`COc1ccc(-c2[nH]c3ccc(C4CCN(CC(=O)NCCNC(C)=O)CC4)cc3c2CC(F)(F)F)cc1OC` [Example 379, N-(2-acetamidoethyl)-2-(4-(2-(3,4-dimethoxyphenyl)-3-(2,2,2-trifluoroethyl)-1H-indol-5-yl)piperidin-1-yl)acetamide]: the results for the IC50 on human TLR7 and against human TLR8 were 0.094 µM and 0.039 µM, respectively.
On to `COc1ccc(-c2[nH]c3ccc(C4CCN(CC(=O)NCCN(C)C)CC4)cc3c2CC(F)(F)F)cc1OC` [Example 380, 2-(4-(2-(3,4-dimethoxyphenyl)-3-(2,2,2-trifluoroethyl)-1H-indol-5-yl)piperidin-1-yl)-N-(2-(dimethylamino)ethyl)acetamide], for which the concentration for half-maximal inhibition (IC50) stood at 0.033 µM against human TLR7 and 0.055 µM against human TLR8.
The matching figures for `COc1ccc(-c2[nH]c3ccc(C4CCN(CC(=O)NCC#N)CC4)cc3c2CC(F)(F)F)cc1OC` [Example 381, N-(cyanomethyl)-2-(4-(2-(3,4-dimethoxyphenyl)-3-(2,2,2-trifluoroethyl)-1H-indol-5-yl)piperidin-1-yl)acetamide]: 0.063 µM and 0.076 µM.
The matching figures for `COc1ccc(-c2[nH]c3ccc(C4CCN(CC(=O)NCCCN(C)C)CC4)cc3c2CC(F)(F)F)cc1OC` [Example 382, 2-(4-(2-(3,4-dimethoxyphenyl)-3-(2,2,2-trifluoroethyl)-1H-indol-5-yl)piperidin-1-yl)-N-(3-(dimethylamino)propyl)acetamide]: 0.017 µM and 0.062 µM.
The matching figures for `COc1ccc(-c2[nH]c3ccc(C4CCN(CC(=O)NCCCn5ccnc5)CC4)cc3c2CC(F)(F)F)cc1OC` [Example 383, N-(3-(1H-imidazol-1-yl)propyl)-2-(4-(2-(3,4-dimethoxyphenyl)-3-(2,2,2-trifluoroethyl)-1H-indol-5-yl)piperidin-1-yl)acetamide]: 0.013 µM and 0.03 µM.
Consider `COc1ccc(-c2[nH]c3ccc(C4CCN(CC(=O)NCCc5ccc(S(N)(=O)=O)cc5)CC4)cc3c2CC(F)(F)F)cc1OC` [Example 384, 2-(4-(2-(3,4-dimethoxyphenyl)-3-(2,2,2-trifluoroethyl)-1H-indol-5-yl)piperidin-1-yl)-N-(4-sulfamoylphenethyl)acetamide], for which the IC50 came to 0.15 µM against human TLR7 and 0.081 µM at human TLR8.
The matching figures for `COc1ccc(-c2[nH]c3ccc(C4CCN(CC(=O)NCC(N)=O)CC4)cc3c2CC(F)(F)F)cc1OC` [Example 385, N-(2-amino-2-oxoethyl)-2-(4-(2-(3,4-dimethoxyphenyl)-3-(2,2,2-trifluoroethyl)-1H-indol-5-yl)piperidin-1-yl)acetamide]: 0.061 µM and 0.041 µM.
Regarding `COc1ccc(-c2[nH]c3ccc(C4CCN(CC(=O)NCCS(=O)(=O)O)CC4)cc3c2CC(F)(F)F)cc1OC` [Example 386, 2-(2-(4-(2-(3,4-dimethoxyphenyl)-3-(2,2,2-trifluoroethyl)-1H-indol-5-yl)piperidin-1-yl)acetamido)ethane-1-sulfonic acid], the results for the IC50 at human TLR7 and against human TLR8 were 0.557 µM and 0.59 µM, respectively.
As for `COc1ccc(-c2[nH]c3ccc(C4CCN(CC(=O)Nc5cc(C(C)(C)C)[nH]n5)CC4)cc3c2CC(F)(F)F)cc1OC` [Example 387, N-(5-(tert-butyl)-1H-pyrazol-3-yl)-2-(4-(2-(3,4-dimethoxyphenyl)-3-(2,2,2-trifluoroethyl)-1H-indol-5-yl)piperidin-1-yl)acetamide], the values for the concentration for half-maximal inhibition (IC50) at human TLR7 and against human TLR8 were 0.994 µM and 0.587 µM, respectively.
The matching figures for `COc1ccc(-c2[nH]c3ccc(C4CCN(CC(=O)NCCCCN5CCCC5)CC4)cc3c2CC(F)(F)F)cc1OC` [Example 388, 2-(4-(2-(3,4-dimethoxyphenyl)-3-(2,2,2-trifluoroethyl)-1H-indol-5-yl)piperidin-1-yl)-N-(4-(pyrrolidin-1-yl)butyl)acetamide]: 0.009 µM and 0.04 µM.
The matching figures for `CCN(CC)C(=O)C1CCCN(CC(=O)N2CCC(c3ccc4[nH]c(-c5ccc(OC)c(OC)c5)c(C5CCOCC5)c4c3)CC2)C1` (stereo not shown) [Example 391, 1-(2-(4-(2-(3,4-dimethoxyphenyl)-3-(tetrahydro-2H-pyran-4-yl)-1H-indol-5-yl)piperidin-1-yl)-2-oxoethyl)-N,N-diethylpiperidine-3-carboxamide]: 0.626 µM and 0.356 µM.
The matching figures for `CCN(CC)C(=O)C1CCCN(CC(=O)N2CCC(c3ccc4[nH]c(-c5ccc(OC)c(OC)c5)c(C5CCOCC5)c4c3)CC2)C1` (stereo not shown) [Example 392, 1-(2-(4-(2-(3,4-dimethoxyphenyl)-3-(tetrahydro-2H-pyran-4-yl)-1H-indol-5-yl)piperidin-1-yl)-2-oxoethyl)-N,N-diethylpiperidine-3-carboxamide]: 0.681 µM and 0.196 µM.
